Assay results as given in US20230092890A1, “1, 3, 4-Oxadiazole derivative compounds as histone deacetylase 6 inhibitor, and the pharmaceutical composition comprising the same” (Chong Kun Dang Pharmaceutical Corp., priority 2019, published 2023).

How the values were obtained:
HDAC6 human recombinant = molecular target: T1, HDAC6 human recombinant (Homo sapiens, UniProt Q9UBN7); assay: HDAC enzyme activity inhibition (in vitro), HDAC6 assay; format: biochemical; settings: samples at 0.1, 1, 10, 100 and 1000 nM; 37° C. 60 minutes; fluorescence Ex 390, Em 460; read-out: HDAC6 IC50
T1 construct: purchased Calbiochem 382180
T1 sequence (Q9UBN7 1-1215): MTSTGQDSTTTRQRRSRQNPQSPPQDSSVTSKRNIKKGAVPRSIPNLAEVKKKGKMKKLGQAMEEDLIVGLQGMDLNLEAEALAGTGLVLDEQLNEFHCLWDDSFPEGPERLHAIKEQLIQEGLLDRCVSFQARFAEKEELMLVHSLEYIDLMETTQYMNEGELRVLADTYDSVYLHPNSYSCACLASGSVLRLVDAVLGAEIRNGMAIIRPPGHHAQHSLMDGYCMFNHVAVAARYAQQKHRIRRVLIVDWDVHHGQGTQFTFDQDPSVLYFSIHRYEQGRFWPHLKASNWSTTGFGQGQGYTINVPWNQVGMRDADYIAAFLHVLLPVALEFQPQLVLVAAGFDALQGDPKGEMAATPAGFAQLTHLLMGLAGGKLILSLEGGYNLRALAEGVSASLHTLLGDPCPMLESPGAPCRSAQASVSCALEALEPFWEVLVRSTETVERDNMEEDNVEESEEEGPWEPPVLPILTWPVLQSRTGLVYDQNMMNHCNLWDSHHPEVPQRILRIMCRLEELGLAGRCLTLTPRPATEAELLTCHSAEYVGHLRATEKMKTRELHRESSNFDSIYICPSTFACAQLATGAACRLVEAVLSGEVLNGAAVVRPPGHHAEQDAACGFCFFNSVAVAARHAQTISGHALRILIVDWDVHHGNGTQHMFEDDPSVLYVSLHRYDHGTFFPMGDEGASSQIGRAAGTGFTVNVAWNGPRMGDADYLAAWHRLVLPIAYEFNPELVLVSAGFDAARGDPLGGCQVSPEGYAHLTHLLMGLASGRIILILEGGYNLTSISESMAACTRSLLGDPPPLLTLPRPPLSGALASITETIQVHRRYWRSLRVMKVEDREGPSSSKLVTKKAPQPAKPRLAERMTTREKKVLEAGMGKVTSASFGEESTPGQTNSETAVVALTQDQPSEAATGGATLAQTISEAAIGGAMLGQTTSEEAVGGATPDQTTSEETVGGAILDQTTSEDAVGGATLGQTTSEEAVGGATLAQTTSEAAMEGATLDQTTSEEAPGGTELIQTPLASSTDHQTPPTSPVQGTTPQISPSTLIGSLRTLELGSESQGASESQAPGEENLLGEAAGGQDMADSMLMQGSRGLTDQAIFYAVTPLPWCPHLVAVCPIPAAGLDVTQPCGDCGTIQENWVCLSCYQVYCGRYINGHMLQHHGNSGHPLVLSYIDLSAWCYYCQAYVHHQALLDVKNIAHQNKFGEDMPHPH
Procedure, shortened: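 HDAC6 human recombinant enzyme with fluorimetric substrate; […]. Reaction 60 min at 37° C, then developer 30 min at 37° C; fluorescence read at Ex 390/Em 460.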

HDAC1 = molecular target: T2, HDAC1 (Homo sapiens, UniProt Q13547); assay: HDAC enzyme activity inhibition (in vitro), HDAC1 Fluorimetric Drug Discovery Assay Kit; format: biochemical; settings: samples at 100, 1000 and 10000 nM; 37° C. 60 minutes; fluorescence Ex 390, Em 460; read-out: HDAC1 IC50
T2 construct: purchased Enzolifesciences BML-AK511
Procedure, shortened: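 Compound incubated with enzyme 60 min at 37° C, then developer 30 min at 37° C; fluorescence read at Ex 390/Em 460. HDAC1 via fluorimetric kit, compounds at 100, 1000 and 10000 nM; HDAC6 human recombinant, compounds at 0.1, 1, 10, 100 and 1000 nM.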

T2 sequence (Q13547 whole entry): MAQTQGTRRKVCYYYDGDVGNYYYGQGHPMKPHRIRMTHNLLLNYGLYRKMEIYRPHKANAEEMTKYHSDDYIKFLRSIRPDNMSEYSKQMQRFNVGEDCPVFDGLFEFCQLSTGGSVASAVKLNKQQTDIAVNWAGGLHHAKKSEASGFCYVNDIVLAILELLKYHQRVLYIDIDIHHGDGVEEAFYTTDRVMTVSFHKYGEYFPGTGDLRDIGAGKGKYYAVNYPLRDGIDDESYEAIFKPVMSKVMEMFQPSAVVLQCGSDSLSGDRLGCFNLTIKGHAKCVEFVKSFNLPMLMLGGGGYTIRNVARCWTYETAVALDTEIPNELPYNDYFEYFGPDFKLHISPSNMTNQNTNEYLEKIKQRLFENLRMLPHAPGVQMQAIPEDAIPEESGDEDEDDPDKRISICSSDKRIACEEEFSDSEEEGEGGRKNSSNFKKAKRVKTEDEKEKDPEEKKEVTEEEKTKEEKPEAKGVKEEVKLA

O=c1n(Cc2ccc(-c3nnc(C(F)F)o3)cn2)c2cc(F)c(-c3ccncc3)cc2n1[C@@H]1CCN(C2COC2)C1 [Compound 287, (R)-1-((5-(5-(difluoromethyl)-1,3,4-oxadiazole-2-yl)pyridine-2-yl)methyl)-6-fluoro-3-(1-(oxetan-3-yl)pyrrolidine-3-yl)-5-(pyridine-4-yl)-1,3-dihydro-2H-benzo[d]imidazole-2-one]
IC50 (HDAC6 human recombinant): 14 nM
IC50 (HDAC1): > 10000 nM

O=c1n(Cc2ccc(-c3nnc(C(F)F)o3)cn2)c2cc(F)c(-c3cccc4[nH]ccc34)cc2n1[C@@H]1CCN(C2COC2)C1 [Compound 288, (R)-1-((5-(5-(difluoromethyl)-1,3,4-oxadiazole-2-yl)pyridine-2-yl)methyl)-6-fluoro-5-(1H-indole-4-yl)-3-(1-(oxetan-3-yl)pyrrolidine-3-yl)-1,3-dihydro-2H-benzo[d]imidazole-2-one]
IC50 (HDAC6 human recombinant): 10 nM
IC50 (HDAC1): > 10000 nM

O=c1n(Cc2ccc(-c3nnc(C(F)F)o3)cn2)c2cc(F)c(-c3cccc4[nH]ccc34)cc2n1CC1CCN(C2COC2)CC1 [Compound 289, 1-((5-(5-(difluoromethyl)-1,3,4-oxadiazole-2-yl)pyridine-2-yl)methyl)-6-fluoro-5-(1H-indole-4-yl)-3-((1-(oxetan-3-yl)piperidine-4-yl)methyl)-1,3-dihydro-2H-benzo[d]imidazole-2-one]
IC50 (HDAC6 human recombinant): 4 nM
IC50 (HDAC1): > 10000 nM

O=c1n(Cc2ccc(-c3nnc(C(F)F)o3)cn2)c2cc(F)c(-c3cccnc3)cc2n1CC1CCN(C2COC2)CC1 [Compound 290, 1-((5-(5-(difluoromethyl)-1,3,4-oxadiazole-2-yl)pyridine-2-yl)methyl)-6-fluoro-3-((1-(oxetan-3-yl)piperidine-4-yl)methyl)-5-(pyridine-3-yl)-1,3-dihydro-2H-benzo[d]imidazole-2-one]
IC50 (HDAC6 human recombinant): 7 nM
IC50 (HDAC1): > 10000 nM

O=c1n(Cc2ccc(-c3nnc(C(F)F)o3)cn2)c2cc(F)c(-c3ccncc3)cc2n1CC1CCN(C2COC2)CC1 [Compound 291, 1-((5-(5-(difluoromethyl)-1,3,4-oxadiazole-2-yl)pyridine-2-yl)methyl)-6-fluoro-3-((1-(oxetan-3-yl)piperidine-4-yl)methyl)-5-(pyridine-4-yl)-1,3-dihydro-2H-benzo[d]imidazole-2-one]
IC50 (HDAC6 human recombinant): 9 nM
IC50 (HDAC1): > 10000 nM

O=c1n(Cc2ccc(-c3nnc(C(F)F)o3)cn2)c2cc(F)c(-c3cn[nH]c3)cc2n1CC1CCN(C2COC2)CC1 [Compound 292, 1-((5-(5-(difluoromethyl)-1,3,4-oxadiazole-2-yl)pyridine-2-yl)methyl)-6-fluoro-3-((1-(oxetan-3-yl)piperidine-4-yl)methyl)-5-(1H-pyrazole-4-yl)-1,3-dihydro-2H-benzo[d]imidazole-2-one]
IC50 (HDAC6 human recombinant): 3 nM
IC50 (HDAC1): > 10000 nM

O=c1n(Cc2ccc(-c3nnc(C(F)F)o3)cn2)c2cc(F)c(-c3cccnc3)cc2n1[C@@H]1CCCN(C2COC2)C1 [Compound 293, (R)-1-((5-(5-(difluoromethyl)-1,3,4-oxadiazole-2-yl)pyridine-2-yl)methyl)-6-fluoro-3-(1-(oxetan-3-yl)piperidine-3-yl)-5-(pyridine-3-yl)-1,3-dihydro-2H-benzo[d]imidazole-2-one]
IC50 (HDAC6 human recombinant): 8 nM
IC50 (HDAC1): > 10000 nM

O=c1n(Cc2ccc(-c3nnc(C(F)F)o3)cn2)c2cc(F)c(-c3ccncc3)cc2n1[C@@H]1CCCN(C2COC2)C1 [Compound 294, (R)-1-((5-(5-(difluoromethyl)-1,3,4-oxadiazole-2-yl)pyridine-2-yl)methyl)-6-fluoro-3-(1-(oxetan-3-yl)piperidine-3-yl)-5-(pyridine-4-yl)-1,3-dihydro-2H-benzo[d]imidazole-2-one]
IC50 (HDAC6 human recombinant): 11 nM
IC50 (HDAC1): > 10000 nM

O=c1n(Cc2ccc(-c3nnc(C(F)F)o3)cn2)c2cc(F)c(-c3cccc4[nH]ccc34)cc2n1[C@@H]1CCCN(C2COC2)C1 [Compound 295, (R)-1-((5-(5-(difluoromethyl)-1,3,4-oxadiazole-2-yl)pyridine-2-yl)methyl)-6-fluoro-5-(1H-indole-4-yl)-3-(1-(oxetan-3-yl)piperidine-3-yl)-1,3-dihydro-2H-benzo[d]imidazole-2-one]
IC50 (HDAC6 human recombinant): 10 nM
IC50 (HDAC1): > 10000 nM

O=c1n(Cc2ccc(-c3nnc(C(F)F)o3)cn2)c2cc(F)c(-c3cn[nH]c3)cc2n1[C@@H]1CCCN(C2COC2)C1 [Compound 296, (R)-1-((5-(5-(difluoromethyl)-1,3,4-oxadiazole-2-yl)pyridine-2-yl)methyl)-6-fluoro-3-(1-(oxetan-3-yl)piperidine-3-yl)-5-(1H-pyrazole-4-yl)-1,3-dihydro-2H-benzo[d]imidazole-2-one]
IC50 (HDAC6 human recombinant): 5 nM
IC50 (HDAC1): > 10000 nM

O=c1n(Cc2ccc(-c3nnc(C(F)F)o3)cn2)c2cc(F)c(-c3cccnc3)cc2n1[C@H]1CCCN(C2COC2)C1 [Compound 297, (S)-1-((5-(5-(difluoromethyl)-1,3,4-oxadiazole-2-yl)pyridine-2-yl)methyl)-6-fluoro-3-(1-(oxetan-3-yl)piperidine-3-yl)-5-(pyridine-3-yl)-1,3-dihydro-2H-benzo[d]imidazole-2-one]
IC50 (HDAC6 human recombinant): 10 nM
IC50 (HDAC1): > 10000 nM

CCN1CCC[C@H](n2c(=O)n(Cc3ccc(-c4nnc(C(F)F)o4)cn3)c3cc(F)c(-c4cccnc4)cc32)C1 [Compound 298, (S)-1-((5-(5-(difluoromethyl)-1,3,4-oxadiazole-2-yl)pyridine-2-yl)methyl)-3-(1-ethylpiperidine-3-yl)-6-fluoro-5-(pyridine-3-yl)-1,3-dihydro-2H-benzo[d]imidazole-2-one]
IC50 (HDAC6 human recombinant): 9 nM
IC50 (HDAC1): > 10000 nM

O=c1n(Cc2ccc(-c3nnc(C(F)F)o3)cn2)c2cc(F)c(-c3ccncc3)cc2n1[C@H]1CCCN(C2COC2)C1 [Compound 299, (S)-1-((5-(5-(difluoromethyl)-1,3,4-oxadiazole-2-yl)pyridine-2-yl)methyl)-6-fluoro-3-(1-(oxetan-3-yl)piperidine-3-yl)-5-(pyridine-4-yl)-1,3-dihydro-2H-benzo[d]imidazole-2-one]
IC50 (HDAC6 human recombinant): 13 nM
IC50 (HDAC1): > 10000 nM

CCN1CCC[C@H](n2c(=O)n(Cc3ccc(-c4nnc(C(F)F)o4)cn3)c3cc(F)c(-c4ccncc4)cc32)C1 [Compound 300, (S)-1-((5-(5-(difluoromethyl)-1,3,4-oxadiazole-2-yl)pyridine-2-yl)methyl)-3-(1-ethylpiperidine-3-yl)-6-fluoro-5-(pyridine-4-yl)-1,3-dihydro-2H-benzo[d]imidazole-2-one]
IC50 (HDAC6 human recombinant): 13 nM
IC50 (HDAC1): > 10000 nM

O=c1n(Cc2ccc(-c3nnc(C(F)F)o3)cn2)c2cc(F)ccc2n1CC1CCN(C2COC2)CC1 [Compound 301, 3-((5-(5-(difluoromethyl)-1,3,4-oxadiazole-2-yl)pyridine-2-yl)methyl)-5-fluoro-1-((1-(oxetan-3-yl)piperidine-4-yl)methyl)-1,3-dihydro-2H-benzo[d]imidazole-2-one]
IC50 (HDAC6 human recombinant): 29 nM
IC50 (HDAC1): > 10000 nM

O=c1n(Cc2ccc(-c3nnc(C(F)F)o3)cn2)c2cc(F)ccc2n1C1CN(C2COC2)C1 [Compound 302, 3-((5-(5-(difluoromethyl)-1,3,4-oxadiazole-2-yl)pyridine-2-yl)methyl)-5-fluoro-1-(1-(oxetan-3-yl)azetidine-3-yl)-1,3-dihydro-2H-benzo[d]imidazole-2-one]
IC50 (HDAC6 human recombinant): 38 nM
IC50 (HDAC1): > 10000 nM

Cn1c(=O)n(Cc2ccc(-c3nnc(C(F)F)o3)cn2)c2cc(F)c(N3CCN(Cc4cccnc4)CC3)cc21 [Compound 303, 1-((5-(5-(difluoromethyl)-1,3,4-oxadiazole-2-yl)pyridine-2-yl)methyl)-6-fluoro-3-methy 1-5-(4-(pyridine-3-ylmethyl)piperazine-1-yl)-1,3-dihydro-2H-benzo[d]imidazole-2-one]
IC50 (HDAC6 human recombinant): 29 nM
IC50 (HDAC1): > 10000 nM
